Experimental data taken from ChEMBL document CHEMBL5465560, “Selectivity Literature for EUbOPEN Chemogenomic Library” (2024).
Blank lines part the entries; values can stand above or below the compound they belong to.

Key:
[1] = target: T1, Phosphorylase b kinase gamma catalytic chain, liver/testis isoform (Homo sapiens) (UniProt P15735); assay: Selectivity interaction (Ambit KINOMEscan and KiNATiv profiling in Jurkat cells) EUB0000090b PHKG2; assay type: cell-based; details: at 1 µM
T1 sequence (whole entry): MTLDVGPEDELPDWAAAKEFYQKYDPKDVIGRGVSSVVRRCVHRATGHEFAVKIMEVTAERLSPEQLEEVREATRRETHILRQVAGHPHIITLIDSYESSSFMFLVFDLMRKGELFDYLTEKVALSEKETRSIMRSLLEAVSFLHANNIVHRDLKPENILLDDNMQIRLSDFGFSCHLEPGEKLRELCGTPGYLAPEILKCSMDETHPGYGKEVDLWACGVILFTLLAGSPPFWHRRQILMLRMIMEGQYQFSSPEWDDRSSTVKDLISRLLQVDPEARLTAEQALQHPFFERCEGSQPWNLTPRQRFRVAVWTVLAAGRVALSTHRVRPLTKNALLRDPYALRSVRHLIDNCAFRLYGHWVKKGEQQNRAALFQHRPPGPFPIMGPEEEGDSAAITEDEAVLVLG

[2] = target: Dual specificity mitogen-activated protein kinase kinase 1 (Homo sapiens, UniProt Q02750); assay: Selectivity interaction (KinomeScan (DiscoverX)) EUB0000607a MAP2K1; details: at 10 µM
[3] = target: T2, Megakaryocyte-associated tyrosine-protein kinase (Homo sapiens) (UniProt P42679); assay: Selectivity interaction (KinomeScan (DiscoverX)) EUB0001619a MATK; details: at 1 µM
T2 sequence (whole entry): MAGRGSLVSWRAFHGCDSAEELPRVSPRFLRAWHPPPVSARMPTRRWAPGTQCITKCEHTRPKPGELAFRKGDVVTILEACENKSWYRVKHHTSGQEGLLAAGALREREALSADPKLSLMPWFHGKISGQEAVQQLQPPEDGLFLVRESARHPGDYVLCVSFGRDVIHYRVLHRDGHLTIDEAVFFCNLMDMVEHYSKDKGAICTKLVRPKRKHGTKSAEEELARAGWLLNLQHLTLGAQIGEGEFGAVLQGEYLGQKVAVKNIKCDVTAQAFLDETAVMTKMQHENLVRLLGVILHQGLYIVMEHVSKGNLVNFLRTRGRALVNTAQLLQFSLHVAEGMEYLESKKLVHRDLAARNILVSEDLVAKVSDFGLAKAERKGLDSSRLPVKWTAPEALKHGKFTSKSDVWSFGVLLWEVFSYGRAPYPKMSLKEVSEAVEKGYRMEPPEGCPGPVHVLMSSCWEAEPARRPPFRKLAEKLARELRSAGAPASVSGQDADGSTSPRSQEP

[4] = target: Casein kinase II subunit alpha (Homo sapiens, UniProt P68400); assay: Selectivity interaction (Kinase panel (KiNativ target engagement assay in Jurkat cells)) EUB0001635a CSNK2A1; assay type: cell-based; details: Selectivity number of off-targets 0.0, Selectivity number of targets 233.0, Source Knowledge https://www.sciencedirect.com/science/article/pii/S2451945619300674?via%3Dihub, at 1 µM
[5] = target: Serine/threonine-protein kinase OSR1 (Homo sapiens) (UniProt O95747); details: at 10 µM
[6] = target: Eukaryotic translation initiation factor 2-alpha kinase 3 (Homo sapiens, UniProt Q9NZJ5)
[7] = target: T1, Phosphorylase b kinase gamma catalytic chain, liver/testis isoform (Homo sapiens); assay: Selectivity interaction (KinomeScan (DiscoverX)) EUB0000666a PHKG2; details: at 10 µM
[8] = target: T3, Dual specificity mitogen-activated protein kinase kinase 4 (Homo sapiens) (UniProt P45985); assay: Selectivity interaction (KinomeScan (DiscoverX)) EUB0001550a MAP2K4; details: at 1 µM
T3 sequence (whole entry): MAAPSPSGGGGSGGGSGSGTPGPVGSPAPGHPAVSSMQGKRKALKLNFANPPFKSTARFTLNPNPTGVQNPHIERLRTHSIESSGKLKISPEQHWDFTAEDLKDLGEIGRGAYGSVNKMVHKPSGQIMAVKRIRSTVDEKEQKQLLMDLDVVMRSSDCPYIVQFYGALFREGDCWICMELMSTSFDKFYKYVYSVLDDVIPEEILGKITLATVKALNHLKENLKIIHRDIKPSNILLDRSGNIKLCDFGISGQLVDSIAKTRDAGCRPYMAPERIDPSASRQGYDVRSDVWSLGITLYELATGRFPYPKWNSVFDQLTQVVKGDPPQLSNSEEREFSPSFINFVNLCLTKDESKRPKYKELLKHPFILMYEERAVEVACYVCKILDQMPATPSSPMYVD

[9] = target: T4, cGMP-dependent protein kinase 2 (Homo sapiens) (UniProt Q13237); assay: Selectivity interaction (Kinase panel (Z-LYTE Assay)) EUB0001632a PRKG2; details: at 10 µM
T4 sequence (whole entry): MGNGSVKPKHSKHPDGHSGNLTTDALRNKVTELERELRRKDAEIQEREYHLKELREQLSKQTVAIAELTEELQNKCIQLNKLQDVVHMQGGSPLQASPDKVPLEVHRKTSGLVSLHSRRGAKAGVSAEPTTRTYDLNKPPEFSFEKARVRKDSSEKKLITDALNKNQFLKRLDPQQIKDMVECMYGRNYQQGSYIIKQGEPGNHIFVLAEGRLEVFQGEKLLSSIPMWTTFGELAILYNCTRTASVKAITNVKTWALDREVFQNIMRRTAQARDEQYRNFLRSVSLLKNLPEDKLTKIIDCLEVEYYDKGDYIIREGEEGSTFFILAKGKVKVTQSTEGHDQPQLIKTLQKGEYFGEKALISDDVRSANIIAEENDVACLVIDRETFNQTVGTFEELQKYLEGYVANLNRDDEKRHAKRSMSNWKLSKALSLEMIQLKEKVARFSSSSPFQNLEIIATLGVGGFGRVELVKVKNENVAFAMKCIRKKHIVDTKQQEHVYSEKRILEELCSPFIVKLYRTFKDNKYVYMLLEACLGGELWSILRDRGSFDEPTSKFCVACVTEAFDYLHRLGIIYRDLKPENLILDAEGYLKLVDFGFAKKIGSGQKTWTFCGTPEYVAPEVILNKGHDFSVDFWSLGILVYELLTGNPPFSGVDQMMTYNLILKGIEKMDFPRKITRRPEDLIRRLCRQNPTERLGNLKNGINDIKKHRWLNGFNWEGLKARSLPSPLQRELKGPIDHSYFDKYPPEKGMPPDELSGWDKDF

Sequence of Casein kinase II subunit alpha (P68400 whole entry, looked up): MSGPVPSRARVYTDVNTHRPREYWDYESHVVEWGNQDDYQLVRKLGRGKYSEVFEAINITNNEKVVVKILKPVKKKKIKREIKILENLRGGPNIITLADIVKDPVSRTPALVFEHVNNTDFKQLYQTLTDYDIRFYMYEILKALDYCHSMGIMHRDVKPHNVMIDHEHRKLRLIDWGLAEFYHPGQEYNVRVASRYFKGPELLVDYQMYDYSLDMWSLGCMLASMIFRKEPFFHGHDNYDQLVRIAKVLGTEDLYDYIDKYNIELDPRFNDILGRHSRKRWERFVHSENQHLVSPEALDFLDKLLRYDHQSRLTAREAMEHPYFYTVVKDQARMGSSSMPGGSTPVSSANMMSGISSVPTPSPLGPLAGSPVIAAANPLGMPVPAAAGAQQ
Sequence of Eukaryotic translation initiation factor 2-alpha kinase 3 (Q9NZJ5 whole entry, canonical isoform): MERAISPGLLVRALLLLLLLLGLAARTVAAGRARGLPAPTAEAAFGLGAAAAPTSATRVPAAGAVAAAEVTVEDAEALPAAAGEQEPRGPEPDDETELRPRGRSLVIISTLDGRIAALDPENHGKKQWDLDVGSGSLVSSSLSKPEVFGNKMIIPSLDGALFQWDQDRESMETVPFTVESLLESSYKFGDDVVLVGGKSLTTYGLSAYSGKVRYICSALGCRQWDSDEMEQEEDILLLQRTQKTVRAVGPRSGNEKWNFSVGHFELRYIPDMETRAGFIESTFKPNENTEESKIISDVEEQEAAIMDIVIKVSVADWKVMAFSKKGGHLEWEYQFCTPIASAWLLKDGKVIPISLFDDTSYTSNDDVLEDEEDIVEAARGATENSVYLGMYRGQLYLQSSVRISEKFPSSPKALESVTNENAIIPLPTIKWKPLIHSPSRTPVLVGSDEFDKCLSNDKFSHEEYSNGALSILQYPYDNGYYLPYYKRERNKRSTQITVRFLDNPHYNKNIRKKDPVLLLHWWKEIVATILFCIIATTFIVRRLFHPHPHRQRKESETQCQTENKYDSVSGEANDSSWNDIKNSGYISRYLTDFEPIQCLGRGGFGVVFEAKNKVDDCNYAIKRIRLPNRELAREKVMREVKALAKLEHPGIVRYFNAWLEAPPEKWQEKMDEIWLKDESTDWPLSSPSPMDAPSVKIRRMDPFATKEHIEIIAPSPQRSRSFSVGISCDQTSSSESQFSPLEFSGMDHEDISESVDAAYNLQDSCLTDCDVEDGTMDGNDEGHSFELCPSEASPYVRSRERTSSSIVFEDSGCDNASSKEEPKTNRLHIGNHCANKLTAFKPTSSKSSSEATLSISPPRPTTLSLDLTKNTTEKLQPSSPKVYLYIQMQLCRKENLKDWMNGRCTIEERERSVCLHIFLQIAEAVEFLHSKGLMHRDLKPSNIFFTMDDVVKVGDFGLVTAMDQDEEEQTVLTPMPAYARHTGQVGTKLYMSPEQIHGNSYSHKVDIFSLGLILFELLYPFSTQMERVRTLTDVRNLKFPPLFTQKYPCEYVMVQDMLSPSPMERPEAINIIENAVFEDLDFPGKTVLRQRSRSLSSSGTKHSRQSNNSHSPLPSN
Sequence of Dual specificity mitogen-activated protein kinase kinase 1 (Q02750 whole entry): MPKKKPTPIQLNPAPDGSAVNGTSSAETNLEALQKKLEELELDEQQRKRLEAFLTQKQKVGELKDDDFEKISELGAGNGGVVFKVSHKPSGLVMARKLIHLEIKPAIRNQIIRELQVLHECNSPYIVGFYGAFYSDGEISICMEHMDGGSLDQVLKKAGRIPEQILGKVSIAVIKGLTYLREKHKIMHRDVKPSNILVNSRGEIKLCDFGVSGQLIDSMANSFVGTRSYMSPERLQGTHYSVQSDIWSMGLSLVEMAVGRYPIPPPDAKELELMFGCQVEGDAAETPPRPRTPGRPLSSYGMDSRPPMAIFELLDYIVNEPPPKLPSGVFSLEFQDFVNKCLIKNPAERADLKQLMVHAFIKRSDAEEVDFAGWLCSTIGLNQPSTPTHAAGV
Sequence of Serine/threonine-protein kinase OSR1 (Homo sapiens) (O95747 2-527 limits assumed): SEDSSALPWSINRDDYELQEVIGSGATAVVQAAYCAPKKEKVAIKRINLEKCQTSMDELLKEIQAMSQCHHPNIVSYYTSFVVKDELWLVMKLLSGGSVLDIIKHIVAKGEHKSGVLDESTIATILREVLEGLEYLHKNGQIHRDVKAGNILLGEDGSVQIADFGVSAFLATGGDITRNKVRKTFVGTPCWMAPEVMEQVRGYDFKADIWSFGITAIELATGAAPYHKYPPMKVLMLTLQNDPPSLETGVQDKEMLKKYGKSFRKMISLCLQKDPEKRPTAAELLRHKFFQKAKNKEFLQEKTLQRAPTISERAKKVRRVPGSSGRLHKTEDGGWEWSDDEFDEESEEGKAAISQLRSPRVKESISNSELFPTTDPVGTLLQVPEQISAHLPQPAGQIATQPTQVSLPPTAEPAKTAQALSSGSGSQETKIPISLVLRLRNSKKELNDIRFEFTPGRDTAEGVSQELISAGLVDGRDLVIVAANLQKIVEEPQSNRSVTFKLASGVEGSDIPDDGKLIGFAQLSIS

SMILES: CN(C)C/C=C/C(=O)Nc1ccc(C(=O)N2CCCC(Nc3ncc(Cl)c(-c4c[nH]c5ccccc45)n3)C2)cc1 (centres undefined)
- % of control [1]: 94%

SMILES: CNC(=O)Nc1ccc(-c2nc(N3CC4CCC(C3)O4)c3cnn(C4CCC5(CC4)OCCO5)c3n2)cc1
- % of control [2]: 100%

SMILES: N#Cc1cccc(-c2c[nH]c3ncnc(N4CCOCC4)c23)c1
- % of control [3]: 82%

SMILES: C=CC(=O)Nc1ccc(C(=O)Nc2[nH]nc3c2CN(C(=O)N[C@H](CN(C)C)c2ccccc2)C3(C)C)cc1
- % of engagement [4]: -4.8%

SMILES: Cc1cc([C@@H](C)Nc2ccccc2C(=O)O)c2nc(N3CCOCC3)cc(=O)n2c1 [AZD-6482]
- % of control [5]: 100%

- IC50 [6]: > 10 µM
SMILES: CCc1cccc(CC)c1NC(=O)c1nn(C)c2c1CCc1cnc(Nc3ccc(C(=O)NC4CCN(C)CC4)cc3OC(F)(F)F)nc1-2

SMILES: O=C(NOC[C@H](O)CO)c1ccc(F)c(F)c1Nc1ccc(I)cc1F
- % of control [7]: 93%

- % of control [8]: 12%
SMILES: CN(C)CC#Cc1ccc2[nH]c3c(c2c1)-c1nc(N)ncc1CCC3

- % of control [9]: -2.3%
SMILES: Cn1cc(-n2cnc3c(NCc4nc5cc(Cl)c(Cl)cc5[nH]4)nc(N4CCOCC4)nc32)cn1
